Assays:
Assay type in all cases: in vivo
[1] = test system: Fall Armyworm (Spodoptera frugiperda, LAPHFR, FAW); test: Bioassay 7: fall armyworm, artificial diet, 96 well plate
Experimental: (§1) The test solutions were tested against CEW, FAW, BAW, and SBL using the following procedure: an artificial lepidopteran diet (Multispecies Lepidopteran Diet, Southland Products) was distributed in 96 well plate. Twenty μL of test solution was pipetted onto a cell in the bioassay plate. […] Each treatment was replicated 5 times for each species. Approximately five first instar CEW, FAW, BAW, or SBL larva were placed on top of the diet in each cell and was contained with a clear perforated adhesive lid. Test trays were held at approximately 25° C. and ambient relative humidity prior to grading. After five days, the number of cells where all the larvae were dead were recorded as 100% and averaged across all replicates; then the percent control was measured using Abbott's correction formula (W. S. Abbott, J. Econ. Entomol. 18 (1925), pp. 265-267) as follows:
(§2) where X=No. of live larvae on solvent check and Y=No. of live larvae on treated diet. In Table 7 the “Expected % Control” was calculated using the method described in Colby S. R., Weeds, 1967, 15, 20-22. Bioassay 8: Western Corn Rootworm (Diabrotica virgifera virgifera, DIABVI, “WCR”)

[2] = test system: Beet Armyworm (Spodoptera exigua, LAPHEG, BAW); test: Bioassay 7: beet armyworm, artificial diet, 96 well plate; conditions: AI alone at 0.4 wt %
Experimental: as §1, §2

[3] = test system: Soybean Looper (Chrysodeixis includens, PSEPIN, SBL); test: Bioassay 7: soybean looper, artificial diet, 96 well plate; conditions: CL; AI alone at 0.4 wt %
Experimental: as §1, §2

[4] = test system: Corn Earworm (Helicoverpa zea, HELIZE, CEW); test: Bioassay 7: corn earworm, artificial diet, 96 well plate; conditions: AI alone at 0.4 wt %
Experimental: as §1, §2

[5] = test system: Green Peach Aphid (Myzus persicae, MYZUPE, GPA); test: Bioassay 1: green peach aphid, cabbage seedling foliar spray; conditions: AI alone at the rate of Wt Ratio F1:AI 1:10256 (F1 0.04), 3 days
Experimental: Bioassay 1: Green Peach Aphid (Myzus persicae, MYZUPE, “GPA”).
Stock solutions of F1 and various active ingredients were prepared initially at a concentration of 4 milligrams per milliliter (mg/mL) for F1 and 0.1 mg/mL for the active ingredients, respectively, using a 1:1 mixture of acetone:methanol as a diluent. Stock solutions were prepared with F1 as well as for each of the active ingredients individually. Test solutions were prepared from the stock solutions. Test solutions were prepared containing F1, the individual active ingredients, and mixtures of F1 with each of the active ingredients. The test solutions for F1 and the individual active ingredients were prepared by adding 750 microliters (μL) of stock solution to a 25 mL glass vial, then adding 750 μL of 1:1 acetone:methanol solvent, followed by the addition of 13.5 mL water with 0.025% Tween® 20 to create a 0.0005% (weight/volume (w/v)) solution. The test solutions containing mixtures of F1, and the individual active ingredients were prepared by adding 750 μL of the active ingredient stock solution to a 25 mL glass vial, followed by 750 μL of the F1 stock solution, then by the addition of 13.5 mL water with 0.025% Tween® 20 to create a test solution containing 0.0005% (w/v) F1 and 0.0005% (w/v) of the active ingredient. Each test solution was serially diluted to create desired doses of test solutions (0.0005% (w/v), 0.000125% (w/v), 0.00003125% (w/v), 0.0000078% (w/v), 0.00000195% (w/v), and 0.0000005% (w/v)). In test solutions containing mixtures of F1 and the active ingredients, the active ingredients were diluted as described above, but the concentration of F1 was held constant (0.04% (w/v)).
The test solutions were tested against GPA using the following procedure: cabbage seedlings, grown in 3-inch pots with 2-3 small (3-5 centimeter (cm)) true leaves, were used as test substrate. The seedlings were infested with 20-50 GPA (wingless adult and nymph stages) one day prior to chemical application. Four pots with individual seedlings were used for each treatment. A hand-held aspirator-type sprayer was used for spraying a solution to both sides of […] leaves until runoff. Reference plants (solvent check) were sprayed with the diluent only (0.025% Tween® 20 and 10% acetone:methanol (1:1) in water). Treated plants were held in a holding room for three days at approximately 25° C. and ambient relative humidity (RH about 20% to about 45%) prior to grading. Evaluation was conducted by counting the number of live aphids per plant under a microscope three days after treatment. Percent control was measured using Abbott's correction formula (W. S. Abbott, J. Econ. Entomol. 18 (1925), pp. 265-267) as follows:
where X=No. of live aphids on solvent check plants and Y=No. of live aphids on treated plants. In Table B1 the “Expected % Control” was calculated using the method described in Colby S. R., Weeds, 1967, 15, 20-22. Bioassay 2: Sweet Potato Whitefly (Bemisia tabaci, BEMITA, “SPW”).

[6] = test system: Soybean Looper (Chrysodeixis includens, PSEPIN, SBL); test: Bioassay 4: soybean looper, artificial diet, 128-cell tray; conditions: AI alone, 0.000004 wt %
Experimental: (§3) Stock solutions were prepared with F1 as well as for each of the active ingredients individually. Test solutions were prepared from the stock solutions. Test solutions were prepared containing F1, the individual active ingredients, and mixtures of F1 with each of the active ingredients. The test solution for F1 was prepared by adding 500 μL of the stock solution to a 25 mL glass vial, then adding 500 μL of a 9:1 mixture of acetone:water. The individual active ingredients were prepared by adding 500 μL of stock solution to a 25 mL glass vial, then adding 500 μL of a 9:1 mixture of acetone:water. The test solutions containing mixtures of F1, and the individual active ingredients were prepared by adding 500 μL of the active ingredient stock solution to a 25 mL glass vial, followed by 500 μL of the F1 stock solution, creating a test solution containing 0.04% (w/v) of F1 and 0.4% (w/v) of the active ingredient. Each test solution was serially diluted to create desired doses of test solutions (F1 at 0.04% (w/v), 0.004% (w/v), 0.0004% (w/v), 0.00004% (w/v), 0.000004% (w/v), and 0.0000004% (w/v) and active ingredients at 0.4% (w/v), 0.04% (w/v), 0.004% (w/v), 0.0004% (w/v), 0.00004% (w/v), and 0.000004% (w/v)).
(§4) The test solutions were tested against CEW, FAW, and SBL using the following procedure: an artificial lepidopteran diet (Multispecies Lepidopteran Diet, Southland Products) was distributed in 128-cell bioassay trays (Frontier Agricultural Sciences™). 50 μL of test solution was pipetted into a cell in the bioassay tray. (The test solution doses of 0.04% (w/v), 0.004% (w/v), 0.0004% (w/v), 0.00004% (w/v), 0.000004% (w/v), and 0.0000004% (w/v) translated to concentrations of 5, 0.5, 0.05, 0.005, 0.0005, and 0.00005 μg/cm^2 on the diet, respectively.) A reference treatment (solvent check) was treated with the diluent only. Each treatment was replicated 8 times for each species. A 2nd instar CEW, FAW, or SBL larva was placed on top of the diet in each cell and was contained with a clear perforated adhesive lid. Test trays were held at approximately 26° C. and ambient relative humidity (RH) prior to grading.
(§5) After 5 days, the number of live larvae were recorded from each cell and percent control was measured using Abbott's correction formula (W. S. Abbott, J. Econ. Entomol. 18 (1925), pp. 265-267) as follows:
(§6) where X=No. of live larvae on solvent check and Y=No. of live larvae on treated diet. In Table B4 the “Expected % Control” was calculated using the method described in Colby S. R., Weeds, 1967, 15, 20-22. Bioassay 5: Neotropical Brown Stink Bug (Euschistus heros, EUSCHE, “BSB”).

[7] = test system: Fall Armyworm (Spodoptera frugiperda, LAPHFR, FAW); test: Bioassay 4: fall armyworm, artificial diet, 128-cell tray; conditions: AI alone, 0.000004 wt %
Experimental: as §3, §4, §5, §6

[8] = test system: Corn Earworm (Helicoverpa zea, HELIZE, CEW); test: Bioassay 4: corn earworm, artificial diet, 128-cell tray; conditions: AI alone
Experimental: as §3, §4, §5, §6

[9] = test system: Sweet Potato Whitefly (Bemisia tabaci, BEMITA, SPW); test: Bioassay 2: sweet potato whitefly, cotton seedling foliar spray; conditions: AI alone
Experimental: Stock solutions were prepared with F1 as well as for each of the active ingredients individually. Test solutions were prepared from the stock solutions. Test solutions were prepared containing F1, the individual active ingredients, and mixtures of F1 with each of the active ingredients. The test solutions for F1 and the individual active ingredients were prepared by adding 500 μL of stock solution to a 25 mL glass vial, then adding 500 μL of acetone, followed by the addition of 9 mL water with 0.025% Tween® 20 to create a 0.001% (w/v) solution. The test solutions containing mixtures of F1, and the individual active ingredients were prepared by adding 500 μL of the active ingredient stock solution to a 25 mL glass vial, followed by 500 μL of the F1 stock solution, then by the addition of 9 mL water with 0.025% Tween® 20 to create a test solution containing 0.001% (w/v) F1 and 0.001% (w/v) of the active ingredient. Each test solution was serially diluted to create desired doses of test solutions (0.001% (w/v), 0.0001% (w/v), 0.00001% (w/v), 0.000001% (w/v), 0.0000001% (w/v), and 0.00000001% (w/v)).
The test solutions were tested against SPW using the following procedure: Cotton seedlings grown in 3-inch pots, pruned so that only one true leaf remained, were used as test substrate. Adult B. tabaci were allowed to colonize the cotton plants and lay eggs for 24 hours after which all adults were removed from the plants using compressed air. Plants were monitored for egg development, and when crawler emergence was underway (>25% emergence based on visual examination using a microscope), the plants were sprayed using the test solutions and methods described above for green peach aphids (GPA). Treated plants were held in a holding room at approximately 25° C. and ambient relative humidity (RH) prior to grading. Evaluation was conducted by counting the number of developed 2-3 instar nymphs per plant under a microscope 7-9 days after treatment. Percent control was measured using Abbott's correction formula (W. S. Abbott, J. Econ. Entomol. 18 (1925), pp. 265-267) as follows:
where X=No. of live nymphs on solvent check plants and Y=No. of live nymphs on treated plants. In Table B2 the “Expected % Control” was calculated using the method described in Colby S. R., Weeds, 1967, 15, 20-22. Bioassay 3: Western Flower Thrips (Frankliniella occidentalis, FRANOC, “WFT”).

With `O=S(=O)(CCC(F)=C(F)F)c1ncc(Cl)s1` [Fluensulfone] the “Average % Control AI” value ([1]; AI alone at 0.4 wt %) was 0.0%, the “Average % Control AI” value [2] was 0.0% and the “Average % Control AI” value [3] was 12.5%. For the same compound, the “Average % Control AI” value [4] was 0.0%.

For `CON(C(=O)c1cn(C)nc1C(F)F)C(C)Cc1c(Cl)cc(Cl)cc1Cl` (centres unmarked) [Pydiflumetofen], the “Average % Control AI” value ([1]; AI alone at 0.4 wt %) was 0.0%, the “Average % Control AI” value [2] was 0.0% and the “Average % Control AI” value [3] was 0.0%.

For `Cc1cc(C)c(C2=C(OC(=O)CC(C)(C)C)C3(CCCC3)OC2=O)c(C)c1` [Spiromesifen], the “Average % Control AI” value ([1]; AI alone at 0.4 wt %) was 12.5%, the “Average % Control AI” value [2] was 12.5% and the “Average % Control AI” value [3] was 12.5%.

For `O=[N+]([O-])/N=C1\NCCN1Cc1ccc(Cl)nc1` [Imidacloprid], the “Average % Control AI” value [5] was 40.5%, the “Average % Control AI” value [6] was 12.5% and the “Average % Control AI” value [7] was 0.0%. The “Average % Control AI” value ([8]; 0.000004 wt %) was 0.0% and the “Average % Control AI” value ([8]; 0.00004 wt %) was 0.0%.

In the case of `CNC(=O)O/N=C(\SC)C(=O)N(C)C` [Oxamyl], the “Average % Control AI” value ([1]; AI alone at 0.4 wt %) is reported as 0.0%, the “Average % Control AI” value [2] is reported as 0.0% and the “Average % Control AI” value [3] is reported as 0.0%. The “Average % Control AI” value [4] was 0.0%.

With `CN(C(=O)c1ccccc1)c1cccc(C(=O)Nc2c(Br)cc(C(F)(C(F)(F)F)C(F)(F)F)cc2C(F)(F)F)c1F` [Broflanilide] the “Average % Control AI” value ([1]; AI alone at 0.004 wt %) was 0.0%.

For `O=c1c(-c2cccc(C(F)(F)F)c2)c([O-])[n+](Cc2cncnc2)c2ccccn12` [Triflumezopyrim], the “Average % Control AI” value [6] was 12.5%, the “Average % Control AI” value [7] was 0.0% and the “Average % Control AI” value ([8]; 0.000004 wt %) was 0.0%. The “Average % Control AI” value ([8]; 0.00004 wt %) was 0.0%, the “Average % Control AI” value ([9]; Wt % AI 0.000001, 7-9 days) was 10.1% and the “Average % Control AI” value ([9]; Wt % AI 0.00001, 7-9 days) was 31.4%.
